Data on one compound can be found in patent US5300629A, “Bactericidal and/or bacteriostatic peptides isolated from hemolymph of honeybees” (Plant Genetic Systems, N.V., priority 1987, dated 1994).

The test system of this test is Corynebacterium insidiosum NCPPB 1109. Nature of the test: Minimal inhibitory concentration in liquid culture. As to conditions: 200 μl rich medium, 10^4 log-phase bacteria. The format is cell-based. As for the experimental part:
In addition the exact concentration was determined precisely by amino-acid analysis and an equal sample of natural Bee 6b was prepared, allowing to compare the bactericidal activity of both natural and synthetic apidaecins by means of growth inhibition assays in liquid cultures (see mat & Meth.). The minimal inhibitory concentrations (μg/ml) were determined in liquid culture : 200 μl of a rich medium (trypticase soy broth or nutrient broth) was inoculated with 10^4 log-phase bacteria. Peptide concentrations ranged between 0 and 200 μg/ml. The values express μg/ml; when no inhibition was noticed the maximal values are given (+200 μg/ml or +50 μg/ml). All peptides were chemically synthesized, except for bee 6b which is purified from bee lymph.

Molecules are shown by their SMILES. Converted amounts (≈) assume the structure as drawn. Where a SMILES comes first, the peptide text is derived from it.

The compound `CC[C@H](C)[C@H](NC(=O)[C@H](Cc1ccc(O)cc1)NC(=O)[C@@H](NC(=O)[C@@H]1CCCN1C(=O)[C@H](CCCNC(=N)N)NC(=O)[C@H](CC(N)=O)NC(=O)[C@H](CC(N)=O)NC(=O)CN)C(C)C)C(=O)N[C@@H](CCC(N)=O)C(=O)N1CCC[C@H]1C(=O)N[C@@H](CCCNC(=N)N)C(=O)N1CCC[C@H]1C(=O)N1CCC[C@H]1C(=O)N[C@@H](Cc1c[nH]cn1)C(=O)N1CCC[C@H]1C(=O)N[C@@H](CCCNC(=N)N)C(=O)N[C@@H](CC(C)C)C(=O)O` [Apid PT-1] (H-GNNRPVYIQPRPPHPRL-OH) registered a minimal inhibitory concentration of 50 µg/mL (≈ 24.9 µM).
